Experiment [1] has as its system advanced or metastatic cancer with the KRAS G12C mutation. The following applies: cited from earlier work; for disease control rate: Hong et al. 2020.
Experiment [2] concerns extracellular signal-regulated kinase (ERK). The following applies: preclinical studies; Hong et al. 2020; cited from earlier work.
In another experiment the test system is KRAS p.G12C tumors. The following applies: mice bearing KRAS p.G12C tumors; Hong et al. 2020; cited from earlier work.
The next experiment has as its target KRAS^G12C (Homo sapiens, UniProt P01116, C118A/G12C). Put plainly: Coupled Nucleotide Exchange Assay. It counts as biochemical. The settings on record: GDP-bound KRAS (aa 1-169) G12C/C118A; 2 h compound pre-incubation; SOS-mediated exchange, 30 min; cRAF binding (AlphaLISA). The method, boiled down: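 GDP-bound His-tagged KRAS aa 1-169 (G12C/C118A) pre-incubated 2 h with compound in 25 mM HEPES pH 7.4, 10 mM MgCl2, 0.01% Triton X-100 (±0.1% BSA), then SOS (aa 564-1049) plus GTP added for 30 min. GST-cRAF RBD binding read by AlphaLISA; DMSO-normalized, 4-parameter fit gives IC50.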
A general note: Bead proximity is the source of the signal in Alpha formats.

The subject of a further experiment is MIA PaCa-2 cells. Put plainly: Cell Viability Assay, MIA PaCa-2. In kind it is cell-based. The settings on record: Homo sapiens, MIA PaCa-2, 72 h, human pancreatic carcinoma, CellTiter-Glo. (In general: ATP-based viability assays read luminescence as a measure of living cells.)
For a further experiment, the system named is A549 cells. The experiment is described as follows: Cell Viability Assay, A549. It counts as cell-based. The settings on record: A549; human lung carcinoma; 72 h; CellTiter-Glo.

pIC50: −log10 of the molar value. Like-named read-outs stand apart in the source and are kept apart here.

These results are taken from patent US20260327243A1, “SPIRO-HETEROCYCLIC INHIBITORS OF KRAS G12C MUTANT PROTEINS AND USES THEREOF” (AMGEN INC., priority 2023, published 2026).

What is called pIC50 is the IC50 on a negative log10 scale, so that one unit is a factor of ten. Higher therefore signals a low IC50.

KRAS^G12C, sequence (P01116 1-169 isoform P01116-2 G12C/C118A): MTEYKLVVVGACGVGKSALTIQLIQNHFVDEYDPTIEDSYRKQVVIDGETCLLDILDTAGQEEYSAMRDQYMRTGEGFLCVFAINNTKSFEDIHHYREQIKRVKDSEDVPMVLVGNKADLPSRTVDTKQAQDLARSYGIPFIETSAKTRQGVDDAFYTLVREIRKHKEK

For the compound `C=CC(=O)N1CCN(c2nc(=O)n(-c3c(C)ccnc3C(C)C)c3nc(-c4c(O)cccc4F)c(F)cc23)[C@@H](C)C1` [Sotorasib, sotorasib], in experiment [1] (NSCLC, colorectal, pancreatic, appendiceal, endometrial, esophageal, unknown primary, ampullary, gastric, small bowel, sinonasal, bile duct cancer, melanoma), the “response by cancer type” value is given as “either stable disease (SD) or partial response (PR)”. Besides, the disease control rate in experiment [1] (colorectal cancer, 42 subjects) is on record as 73.8%; in experiment [1] (non-small cell lung cancer, 59 subjects), 88.1%; in experiment [1] (other tumor types, 28 subjects), 75.0%. The “inhibition of phosphorylation of ERK” value in experiment [2] is listed as “inhibited nearly all detectable phosphorylation of extracellular signal-regulated kinase (ERK)”. For the same compound, the tumor regression entry with KRAS p.G12C tumors was “durable complete tumor regression”.

`C=CC(=O)N1CCN(C2CN(c3cc(N4CCC5(CC4)OCC=C5C)nc(C(F)(F)F)c3C#N)C2)CC1` [Compound 3-051, 4-(3-(4-Acryloylpiperazin-1-yl)azetidin-1-yl)-6-(4-methyl-1-oxa-8-azaspiro[4.5]dec-3-en-8-yl)-2-(trifluoromethyl)nicotinonitrile]: the negative-log IC50 (pIC50) at KRAS^G12C was 6.99; in the experiment with MIA PaCa-2 cells it was 6.55; in the experiment on A549 cells it was less than 5.30.
